Assay results published in ChEMBL document CHEMBL3885861, “Open TG-GATES”.

Organism: Rattus norvegicus
Assay: Open TG-GATES - Regimen: Single
Format: toxicity, organism-based, Sprague-Dawley
Parameters: regimen Single, gender Male, age 6 weeks
Details: in vivo, ip, 0.3 mg/kg, route intraperitoneal injection, dose 300 ug/Kg, dose level High; for APTT / Bas / Eos / Fbg / Hb / Ht / Lym / MCH / MCHC / MCV / Mono / Neu / PT / Plat / RBC / Ret / WBC: tissue Blood; for KIDNEY_L / KIDNEY_R / KIDNEY_TOTAL: tissue Kidney; for LIVER: tissue Liver; for A/G / ALP / ALT / AST / BUN / CRE / Ca / Cl / DBIL / GLC / IP / K / LDH / Na / PL / RALB / TBIL / TC / TG / TP / gamma-GTP: tissue Plasma

## CC(=O)N[C@H]1[C@@H](O[C@@H]2O[C@H](CC(O)[C@H]3O[C@@H](n4ccc(=O)[nH]c4=O)[C@H](O)[C@@H]3O)[C@H](O)[C@H](O)[C@H]2NC(=O)/C=C/CC(C)C)O[C@H](CO)[C@@H](N)[C@@H]1O (some centres not stated) [TUNICAMYCIN]
3 h
  TERMINAL_BW: 222.1 g
  APTT: 21.6 s
  Bas: 0%
  Eos: 0.4%
  Fbg: 288.4 mg/dL
  Hb: 13.1 g/dL
  Ht: 40.3%
  Lym: 80.8%
  MCH: 20.8 pg
  MCHC: 32.5%
  MCV: 64 fL
  Mono: 3%
  Neu: 14.6%
  PT: 15.5 s
  Plat: 108.9 x10_4/uL
  RBC: 630.4 x10_4/ul
  Ret: 8%
  WBC: 89.8 x10_2/uL
  KIDNEY_L: 1 g
  KIDNEY_R: 1 g
  KIDNEY_TOTAL: 2 g
  LIVER: 10.1 g
  A/G: 1.2
  ALP: 1378 IU/L
  ALT: 38.4 IU/L
  AST: 70.6 IU/L
  BUN: 13.6 mg/dL
  CRE: 0.1 mg/dL
  Ca: 10.9 mg/dL
  Cl: 106.6 meq/L
  DBIL: 0 mg/dL
  GLC: 167.8 mg/dL
  IP: 8.4 mg/dL
  K: 4.4 meq/L
  LDH: 154 IU/L
  Na: 140.4 meq/L
  PL: 127.4 mg/dL
  RALB: 2.9 g/dL
  TBIL: 0.016 mg/dL
  TC: 68.6 mg/dL
  TG: 71 mg/dL
  TP: 5.3 g/dL
  gamma-GTP: 1.4 IU/L
6 h
  TERMINAL_BW: 219.8 g
  APTT: 21.5 s
  Bas: 0%
  Eos: 0.8%
  Fbg: 309.6 mg/dL
  Hb: 13.3 g/dL
  Ht: 41%
  Lym: 70.8%
  MCH: 20.8 pg
  MCHC: 32.5%
  MCV: 64 fL
  Mono: 3.2%
  Neu: 24.2%
  PT: 15.9 s
  Plat: 118.2 x10_4/uL
  RBC: 640.4 x10_4/ul
  Ret: 7.6%
  WBC: 84.7 x10_2/uL
  KIDNEY_L: 1 g
  KIDNEY_R: 1 g
  KIDNEY_TOTAL: 1.9 g
  LIVER: 9.1 g
  A/G: 1.2
  ALP: 1426.6 IU/L
  ALT: 41.4 IU/L
  AST: 73.6 IU/L
  BUN: 12.6 mg/dL
  CRE: 0.1 mg/dL
  Ca: 10.7 mg/dL
  Cl: 107 meq/L
  DBIL: 0.002 mg/dL
  GLC: 173.8 mg/dL
  IP: 9.1 mg/dL
  K: 4.5 meq/L
  LDH: 175.8 IU/L
  Na: 141 meq/L
  PL: 125 mg/dL
  RALB: 2.9 g/dL
  TBIL: 0.012 mg/dL
  TC: 71 mg/dL
  TG: 50.4 mg/dL
  TP: 5.4 g/dL
  gamma-GTP: 1.2 IU/L
9 h
  TERMINAL_BW: 212.4 g
  APTT: 20.8 s
  Bas: 0%
  Eos: 0.4%
  Fbg: 307 mg/dL
  Hb: 13.5 g/dL
  Ht: 41.4%
  Lym: 73.8%
  MCH: 20.9 pg
  MCHC: 32.7%
  MCV: 63.7 fL
  Mono: 2.8%
  Neu: 21.4%
  PT: 16.4 s
  Plat: 121.3 x10_4/uL
  RBC: 649.2 x10_4/ul
  Ret: 7.1%
  WBC: 84 x10_2/uL
  KIDNEY_L: 1 g
  KIDNEY_R: 1 g
  KIDNEY_TOTAL: 1.9 g
  LIVER: 8.8 g
  A/G: 1.2
  ALP: 1397.6 IU/L
  ALT: 43.4 IU/L
  AST: 86.6 IU/L
  BUN: 17.4 mg/dL
  CRE: 0.1 mg/dL
  Ca: 10.5 mg/dL
  Cl: 107.4 meq/L
  DBIL: 0 mg/dL
  GLC: 164.8 mg/dL
  IP: 9.4 mg/dL
  K: 4.4 meq/L
  LDH: 185.6 IU/L
  Na: 140.8 meq/L
  PL: 114.8 mg/dL
  RALB: 3 g/dL
  TBIL: 0.018 mg/dL
  TC: 68.2 mg/dL
  TG: 22.2 mg/dL
  TP: 5.4 g/dL
  gamma-GTP: 1 IU/L
24 h
  TERMINAL_BW: 228.7 g
  APTT: 23.4 s
  Bas: 0%
  Eos: 1.2%
  Fbg: 288 mg/dL
  Hb: 13.2 g/dL
  Ht: 41%
  Lym: 76.2%
  MCH: 20.1 pg
  MCHC: 32.2%
  MCV: 62.4 fL
  Mono: 3.6%
  Neu: 18.4%
  PT: 16.5 s
  Plat: 122.4 x10_4/uL
  RBC: 658.2 x10_4/ul
  Ret: 7.2%
  WBC: 97.7 x10_2/uL
  KIDNEY_L: 1 g
  KIDNEY_R: 1 g
  KIDNEY_TOTAL: 1.9 g
  LIVER: 10.8 g
  A/G: 1.3
  ALP: 1621.2 IU/L
  ALT: 55 IU/L
  AST: 86.6 IU/L
  BUN: 14.8 mg/dL
  CRE: 0.2 mg/dL
  Ca: 10.4 mg/dL
  Cl: 106.4 meq/L
  DBIL: 0 mg/dL
  GLC: 174.4 mg/dL
  IP: 7.5 mg/dL
  K: 4.5 meq/L
  LDH: 181.4 IU/L
  Na: 141.2 meq/L
  PL: 120.8 mg/dL
  RALB: 3 g/dL
  TBIL: 0.012 mg/dL
  TC: 58.4 mg/dL
  TG: 70.8 mg/dL
  TP: 5.3 g/dL
  gamma-GTP: 1.6 IU/L
